ChEMBL document CHEMBL4699652, “Proline Hinged Amphipathic α-Helical Peptide Sensitizes Gram-Negative Bacteria to Various Gram-Positive Antibiotics” (J Med Chem, 2020)
Active and inactive are the calls of the source. The calls are words filed in the database; no cut-off is given here.

Legend:
Escherichia coli [1] = experiment: Antimicrobial activity against Escherichia coli ATCC 25922 assessed as inhibition of bacterial growth incubated for 18 hrs by CLSI based method; format: functional
Staphylococcus aureus = experiment: Antimicrobial activity against Staphylococcus aureus ATCC 29213 assessed as inhibition of bacterial growth incubated for 18 hrs by CLSI based method; format: functional
Erythrocyte = experiment: Hemolytic activity in human red blood cells assessed as induction of hemoglobin release incubated for 4 hrs by microplate reader based assay; format: cell-based
Escherichia coli [2] = experiment: Induction of cell lysis in Escherichia coli at 5 uM by transmission electron microscopy; format: functional, organism-based
Cell membrane [3] = experiment: Induction of outer membrane permeability in Escherichia coli assessed as periplasmic-beta-lactamase release at 5 uM using CENTA; format: subcellular
Cell membrane [4] = experiment: Induction of outer membrane re-arragenemnts in Escherichia coli D21f2 incubated for 4 mins by NPN uptake assay; format: subcellular
Cell membrane [5] = experiment: Induction of inner membrane permeability in Escherichia coli at 5 uM incubated for 1 hr by SYTOX Green-staining based flow cytometry analysis; format: subcellular
Cell membrane [6] = experiment: Induction of outer membrane re-arragenemnts in Escherichia coli ATCC 25922 incubated for 4 mins by NPN uptake assay; format: subcellular
[7] = Induction of cell membrane permeability in POPE/POPG assessed as calcein leakage at 2 to 8 uM; conditions: dose microM 2-8
Cell membrane [8] = experiment: Induction of inner membrane permeability in Escherichia coli assessed as cytoplasmic beta-galactosidase release at 5 uM using ONPG
Cell membrane [9] = experiment: Induction of membrane permeability in Escherichia coli assessed as increase in fine surface roughness at 25 uM by atomic force microscopy; format: subcellular
Escherichia coli [10] = experiment: Binding affinity to inner membrane using POPE/POPG (7/3) by SPR assay
Escherichia coli [11] = experiment: Binding affinity to cell membrane using POPC/cholesterol (8/2) by SPR assay
Escherichia coli [12] = experiment: Binding affinity to outer membrane in POPE/POPG lipid layers containing LPS by SPR assay
Escherichia coli [13] = experiment: Induction of cell killing in Escherichia coli assessed as time needed for bacterial destruction at 128 ug/ml; format: functional; conditions: dose 128 µg/ml
Cell membrane [14] = experiment: Induction of cell membrane fluidity changes in Escherichia coli ATCC 25922 by Laurdan-dye based fluorescence assay; format: subcellular
Escherichia coli [15] = experiment: Antimicrobial activity against Escherichia coli ATCC 25922 assessed as reduction in cell viability at 10 to 10000 uM by propidium iodide staining based assay; format: functional, organism-based; conditions: dose microM 10-10000

Row | Compound | MIC (Escherichia coli [1]) [µM] | MIC (Staphylococcus aureus) [µM] | HC10 (Erythrocyte) [µM] | Activity (Cell membrane [3]) | Activity (Cell membrane [4]) | Activity (Cell membrane [5]) | Activity (Cell membrane [6]) | Activity (Cell membrane [8]) | other results
1 | Ac-KLLKPLKKLLKLLK-NH2 | 20 | 20 | 80 | – | – | – | – | – | –
2 | Ac-LKKLLKLLKKLLKL-NH2 | 10 | 10 | 5 | – | – | – | – | – | –
3 | Ac-LKKLLKPLKKLLKL-NH2 | 20 | 20 | 160 | – | – | – | – | – | –
4 | Ac-KLLKLLKKLPKLLK-NH2 | 40 | 40 | 80 | – | – | – | – | – | –
5 | Ac-KPLKLLKKLLKLLK-NH2 | 5 | 5 | 5 | – | – | – | – | – | –
6 | Ac-LKKLLPLLKKLLKL-NH2 | 10 | 2.5 | 1.25 | – | – | – | – | – | –
7 | Ac-LKKLLKLLKPLLKL-NH2 | 5 | 2.5 | 5 | – | – | – | – | – | –
8 | Ac-LKKLLKLLPKLLKL-NH2 | 5 | 2.5 | 5 | inactive | inactive | inactive | Active | inactive | Activity (Escherichia coli [2]): Active; Activity [7]: inactive
9 | Ac-KLLKLLKPLLKLLK-NH2 | 10 | 2.5 | 2.5 | – | – | – | – | – | –
10 | Ac-LKKLLKLPKKLLKL-NH2 | 40 | > 80 | 640 | inactive | inactive | inactive | Active | inactive | –
11 | Ac-KLLKLLKKLLKLLK-NH2 | 20 | 10 | 0.625 | – | – | – | – | – | –
12 | Ac-KLLKLLKKLLKPLK-NH2 | 20 | 10 | 40 | – | – | – | – | – | –
13 | H-LKKLLKLLKKPLKL-NH2 | 20 | 40 | 320 | inactive | inactive | inactive | Active | inactive | –
14 | Ac-LKKPLKLGKKLLKL-NH2 | 5 | 40 | 160 | – | – | – | – | – | –
15 | Ac-LKKLPKLSKKLLKL-NH2 | 2.5 | 10 | 80 | – | – | – | – | – | –
16 | Ac-KLLKLLPKLLKLLK-NH2 | 10 | 5 | 5 | – | – | – | – | – | –
17 | H-KLAKLAKKPLKLAK-OH | – | – | – | inactive | inactive | inactive | Active | inactive | Activity (Cell membrane [9]): inactive
18 | Ac-KLLKLPKKLLKLLK-NH2 | ≥ 80 | > 80 | 640 | inactive | inactive | inactive | Active | inactive | –
19 | Ac-KLLKLLKKLLKLPK-NH2 | 10 | 10 | 40 | – | – | – | – | – | –
20 | Ac-KLPKLLKKLLKLLK-NH2 | 10 | 10 | 10 | – | – | – | – | – | –
21 | Ac-LKKLLKLLKKLPKL-NH2 | 5 | 10 | 40 | inactive | inactive | inactive | Active | inactive | Activity (Escherichia coli [10]): Active; Activity (Escherichia coli [2]): Active; Activity (Escherichia coli [11]): inactive; Activity [7]: inactive; Activity (Escherichia coli [12]): inactive
22 | CC[C@H](C)[C@H](NC(=O)CN)C(=O)NCC(=O)N[C@@H](C)C(=O)N[C@H](C(=O)N[C@@H](CC(C)C)C(=O)N[C@@H](CCCCN)C(=O)N[C@H](C(=O)N[C@@H](CC(C)C)C(=O)N[C@H](C(=O)N[C@H](C(=O)NCC(=O)N[C@@H](CC(C)C)C(=O)N1CCC[C@H]1C(=O)N[C@@H](C)C(=O)N[C@@H](CC(C)C)C(=O)N[C@H](C(=O)N[C@@H](CO)C(=O)N[C@@H](Cc1c[nH]c2ccccc12)C(=O)N[C@H](C(=O)N[C@@H](CCCCN)C(=O)N[C@@H](CCCNC(=N)N)C(=O)N[C@@H](CCCCN)C(=O)N[C@@H](CCCNC(=N)N)C(=O)N[C@@H](CCC(N)=O)C(=O)N[C@@H](CCC(N)=O)C(N)=O)[C@@H](C)CC)[C@@H](C)CC)[C@@H](C)O)[C@@H](C)O)C(C)C)C(C)C [MELITTIN] | – | – | – | inactive | inactive | inactive | Active | inactive | Time (Escherichia coli [13]): 4 h
23 | COLISTIN | – | – | – | inactive | inactive | inactive | Active | inactive | Activity (Cell membrane [14]): Active; Activity (Escherichia coli [15]): Active
